Measurements from publication PMC2866539, “HLA Class I Binding 9mer Peptides from Influenza A Virus Induce CD4^+ T Cell Responses” (PLoS ONE, 2010).
Where no end group is shown, it is not given here.

Assays:
freshly harvested PBMC = conditions: cited from earlier work
[1] = test system: PBMC from HLA-matched donors; assay type: cell-based, human
[2] = test system: PBMC from responding donors; assay type: cell-based, human
DRA1*0101/DRB5*0101 = biological target: T1, DRA1*0101/DRB5*0101 (Homo sapiens, UniProt P01903+Q30154); assay: biochemical; assay type: binding
T1 construct: made in house

DPA1*0103/DPB1*0401 = biological target: T2, DPA1*0103/DPB1*0401 (Homo sapiens, UniProt P04440+P20036); assay: biochemical; assay type: binding
T2 construct: made in house
T2 sequence (P20036 32-222 limits assumed): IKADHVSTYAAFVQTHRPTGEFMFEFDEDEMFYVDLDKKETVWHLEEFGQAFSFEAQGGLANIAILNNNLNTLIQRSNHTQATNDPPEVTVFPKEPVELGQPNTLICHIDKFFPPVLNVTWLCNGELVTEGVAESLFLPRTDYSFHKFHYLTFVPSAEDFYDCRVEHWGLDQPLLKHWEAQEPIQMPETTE
T2 sequence (P04440 30-225 limits assumed): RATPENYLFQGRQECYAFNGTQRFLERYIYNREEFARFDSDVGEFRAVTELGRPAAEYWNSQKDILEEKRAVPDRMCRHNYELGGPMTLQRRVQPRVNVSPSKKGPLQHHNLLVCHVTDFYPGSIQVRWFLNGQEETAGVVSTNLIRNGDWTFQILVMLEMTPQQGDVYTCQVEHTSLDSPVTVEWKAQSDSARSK

DRA1*0101/DRB3*0301 = DRA1*0101/DRB3*0301 (Homo sapiens, UniProt P01903+P79483, A169T/A212P/D57E/G115V/L67V/Q178H/R103Q/R40L/Y55F); assay: biochemical; assay type: binding
Chain of DRA1*0101/DRB3*0301 (P01903 26-254 limits assumed): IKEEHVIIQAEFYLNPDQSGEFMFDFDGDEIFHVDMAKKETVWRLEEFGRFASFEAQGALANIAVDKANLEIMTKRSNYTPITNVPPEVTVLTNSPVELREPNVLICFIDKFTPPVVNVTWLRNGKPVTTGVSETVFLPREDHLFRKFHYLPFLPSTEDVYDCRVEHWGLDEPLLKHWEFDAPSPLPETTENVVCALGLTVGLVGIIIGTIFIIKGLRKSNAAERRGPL
Chain of DRA1*0101/DRB3*0301 (P79483 30-266 R40L/Y55F/D57E/L67V/R103Q/G115V/A169T/Q178H/A212P limits assumed): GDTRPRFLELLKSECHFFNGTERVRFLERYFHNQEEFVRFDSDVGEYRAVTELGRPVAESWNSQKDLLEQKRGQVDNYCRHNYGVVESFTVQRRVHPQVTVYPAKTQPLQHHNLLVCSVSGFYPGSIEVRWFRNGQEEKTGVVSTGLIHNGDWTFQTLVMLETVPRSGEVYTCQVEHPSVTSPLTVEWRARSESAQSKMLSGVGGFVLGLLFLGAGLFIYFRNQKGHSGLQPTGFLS

DRA1*0101/DRB1*0301 = DRA1*0101/DRB1*0301 (Homo sapiens, UniProt P01903+P01911, A100K/A102G/A103R/A169T/F55Y/I96L/K41T/L162R/M171V/P40S/Q125H/Q178H/Q39Y/R42S/S66N/T106N/T262R/W38E/Y61H); assay: biochemical; assay type: binding
Chain of DRA1*0101/DRB1*0301 (P01903 26-254 limits assumed, other chains not shown): as the sequence (P01903 26-254 limits assumed) above

DRA1*0101/DRB1*0101 = biological target: T3, DRA1*0101/DRB1*0101 (Homo sapiens, UniProt P01903+P01911, A100R/D57E/F55L/F60I/F76Y/I96L/L162R/M171V/P40L/Q125E/R42F/V115G/Y59C); assay: biochemical; assay type: binding
T3 construct: made in house

DRA1*0101/DRB1*0401 = biological target: T4, DRA1*0101/DRB1*0401 (Homo sapiens, UniProt P01903+P01911, A100K/A169T/F76Y/I96L/K127E/L162R/M171V/N62H/P40V/Q125Y/R42H/S133A/S149N/S66Y/V115G/V209L/W38E); assay: biochemical; assay type: binding
T4 construct: made in house

DRA1*0101/DRB1*0302 = DRA1*0101/DRB1*0302 (Homo sapiens, UniProt P01903+P01911, A100K/A102G/A103R/A169T/D57E/F76Y/I96L/K41T/L162R/M171V/P40S/Q125H/Q178H/Q39Y/R42S/S66N/T106N/T262R/V115G/W38E/Y61H); assay: biochemical; assay type: binding
HLA-B7 = HLA-B7 (Homo sapiens, UniProt P01889); assay: biochemical; assay type: binding
Chain of HLA-B7 (P01889 25-299): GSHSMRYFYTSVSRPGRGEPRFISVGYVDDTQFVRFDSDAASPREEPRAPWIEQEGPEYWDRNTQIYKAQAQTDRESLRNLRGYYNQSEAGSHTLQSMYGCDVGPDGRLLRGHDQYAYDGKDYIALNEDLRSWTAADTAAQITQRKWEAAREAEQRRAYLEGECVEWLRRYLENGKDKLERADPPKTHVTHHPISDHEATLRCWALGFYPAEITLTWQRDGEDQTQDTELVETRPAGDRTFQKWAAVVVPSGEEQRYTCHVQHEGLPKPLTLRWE
Chain of HLA-B7 (P61769 21-119, further chain): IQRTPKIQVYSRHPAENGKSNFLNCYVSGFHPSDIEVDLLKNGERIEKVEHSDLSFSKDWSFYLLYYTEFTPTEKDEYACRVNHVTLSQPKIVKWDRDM

HLA-A3 = HLA-A3 (Homo sapiens, UniProt P04439); assay: biochemical
Chain of HLA-A3 (P04439 25-299): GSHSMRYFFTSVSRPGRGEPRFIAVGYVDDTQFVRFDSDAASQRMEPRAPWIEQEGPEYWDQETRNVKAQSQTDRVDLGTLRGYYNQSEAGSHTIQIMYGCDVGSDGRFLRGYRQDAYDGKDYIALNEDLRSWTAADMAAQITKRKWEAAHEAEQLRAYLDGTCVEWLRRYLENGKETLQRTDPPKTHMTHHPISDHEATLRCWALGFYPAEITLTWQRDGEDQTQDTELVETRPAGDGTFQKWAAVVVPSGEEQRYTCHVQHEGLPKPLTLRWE
Chain of HLA-A3 (P61769 21-119, further chain): as the sequence (P61769 21-119, further chain) above

Sequence	antigenicity in ELISPOT of Assarsson et al (freshly harvested PBMC)	+Peptide, IFNγ spot forming cell numbers [1]	SFC/1×10^5 PBMC+Peptide, IVA12 [2]	SFC/1×10^5 PBMC+Peptide, Isotype [2]	SFC/1×10^5 PBMC+Peptide, W6/32 [2]	Kd (DRA1*0101/DRB5*0101)	Kd (DPA1*0103/DPB1*0401)	Kd (DRA1*0101/DRB3*0301)	Kd (DRA1*0101/DRB1*0301)	Kd (DRA1*0101/DRB1*0101)	Kd (DRA1*0101/DRB1*0401)	Kd (DRA1*0101/DRB1*0302)	Kd (HLA-B7)	Kd (HLA-A3)
DPLVVAASI [PF-146]	failed to show antigenicity	42±8 per 10^5 PBMC	2±2 SFC/1×10^5 PBMC	17±1 SFC/1×10^5 PBMC	18±3 SFC/1×10^5 PBMC									
ETIVLLRAF [PF-113]						780 nM	> 5 µM	> 5 µM	> 5 µM	3.73 µM	> 5 µM	> 5 µM		
IAPWYAFAL [PF-154]						1700 nM	> 5 µM	> 5 µM	> 5 µM	> 5 µM	> 5 µM	> 5 µM		
ILWILDRLF [PF-140]		17±4 per 10^5 PBMC	1±1 SFC/1×10^5 PBMC	32±3 SFC/1×10^5 PBMC	43±19 SFC/1×10^5 PBMC									
IMLKANFSV [PF-103]						> 5000 nM	> 5 µM	0.018 µM	> 5 µM	3.43 µM	1.39 µM	> 5 µM		
LMNELGVPF [PF-141]						> 5000 nM	> 5 µM	4.01 µM	> 5 µM	> 5 µM	> 5 µM	> 5 µM		
LPFHNVHPL [PF-147]						3700 nM	> 5 µM	> 5 µM	> 5 µM	> 5 µM	> 5 µM	> 5 µM	6 nM	
LPFQNVHPV [PF-150]						1200 nM	> 5 µM	> 5 µM	> 5 µM	> 5 µM	> 5 µM	> 5 µM	161 nM	
LVSLGAISF [PF-148]						> 5000 nM	> 5 µM	> 5 µM	> 5 µM	4.34 µM	> 5 µM	> 5 µM		
TIHDRIPHR [PF-116]														62 nM
VTIGECPKY [PF-110]		247±13 per 10^5 PBMC	5±3 SFC/1×10^5 PBMC	163±28 SFC/1×10^5 PBMC	165±4 SFC/1×10^5 PBMC									
YILLKKILSSRFNQM [hypothetical protein 239–253, reference compound]						17 nM	0.025 µM							
YKYVKQNTLKLAT [HA306–318, reference compound]						12 nM	> 5 µM	0.003 µM	0.026 µM	0.108 µM	0.015 µM	0.053 µM		
YPRYPGVRC [PF-145]													11 nM	
YVKQNTLKL [PF-152]						405 nM	> 5 µM	0.356 µM	> 5 µM	1.2 µM	0.226 µM	2.22 µM	72 nM	
